Measured values as given in US8124793B2, “Derivatives of ethylene methanedisulfonate as cancer chemotherapeutic agents” (priority 2007, dated 2012).

Experiments:
Assay type in all cases: cell-based
CCRF-CEM = experiment: NCI screen, growth of human tumor cells: Leukemia CCRF-CEM; details: CCRF-CEM
Outline: (§1)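 Under the NCI protocol, every compound is profiled with sixty or more data points. Each point ties a cancer type and a molar screening concentration to a percent growth value.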

MOLT-4 = experiment: NCI screen, growth of human tumor cells: Leukemia MOLT-4; details: MOLT-4 (Leukemia), 10^−4 molar
Outline: as §1

RPMI-8226 = experiment: NCI screen, growth of human tumor cells: Leukemia RPMI-8226; details: RPMI-8226 (Leukemia), 10^−4 molar
Outline: as §1

SR = experiment: NCI screen, growth of human tumor cells: Leukemia SR; details: SR
Outline: as §1

AS49/ATCC = experiment: NCI screen, growth of human tumor cells: Non-Small Cell Lung AS49/ATCC; details: A549/ATCC, 10^−4 molar
Outline: as §1

EKVX = experiment: NCI screen, growth of human tumor cells: Non-Small Cell Lung EKVX; details: EKVX, 10^−4 molar
Outline: as §1

HOP-62 = experiment: NCI screen, growth of human tumor cells: Non-Small Cell Lung HOP-62; details: HOP-62, 10^−4 molar
Outline: as §1

HOP-92 = experiment: NCI screen, growth of human tumor cells: Non-Small Cell Lung HOP-92; details: HOP-92 (Non-Small Cell Lung), 10^−4 molar
Outline: as §1

NCI-H522 = experiment: NCI screen, growth of human tumor cells: Non-Small Cell Lung NCI-H522
Outline: as §1

NCI-H460 = experiment: NCI screen, growth of human tumor cells: Non-Small Cell Lung NCI-H460; details: NCI-H460 (Non-Small Cell Lung), 10^−4 molar
Outline: as §1

NCI-H322M = experiment: NCI screen, growth of human tumor cells: Non-Small Cell Lung NCI-H322M; details: 10^−4 molar
Experimental: (§2) In the NCI screening process, each compound was tested and described by a minimum of 60 data points. The test data include, but are not limited to the type of cancer, the molar concentration used in the screen, and the percent growth of the cancer. In some cases, NMR and elemental analysis were used for structural assignment.

NCI-H23 = experiment: NCI screen, growth of human tumor cells: Non-Small Cell Lung NCI-H23; details: NCI-H23, 10^−4 molar
Outline: as §1

HCC-2998 = experiment: NCI screen, growth of human tumor cells: HCC-2998 (listed under Non-Small Cell Lung); details: HCC-2998, 10^−4 molar
Outline: as §1

COLO205 = experiment: NCI screen, growth of human tumor cells: Colon Cancer COLO205
Outline: as §1

HCT-116 = experiment: NCI screen, growth of human tumor cells: Colon Cancer HCT-116; details: HCT-116, 10^−4 molar
Outline: as §1

HCT-15 = experiment: NCI screen, growth of human tumor cells: Colon Cancer HCT-15; details: HCT-15 (Colon Cancer), 10^−4 molar
Outline: as §1

HT29 = experiment: NCI screen, growth of human tumor cells: Colon Cancer HT29; details: HT-29, 10^−4 molar
Outline: as §1

KM12 = experiment: NCI screen, growth of human tumor cells: Colon Cancer KM12; details: KM12, 10^−4 molar
Outline: as §1

SF-268 = experiment: NCI screen, growth of human tumor cells: CNS Cancer SF-268
Outline: as §1

SF-295 = experiment: NCI screen, growth of human tumor cells: CNS Cancer SF-295
Outline: as §1

SNB-19 = experiment: NCI screen, growth of human tumor cells: CNS Cancer SNB-19; details: SNB-19, 10^−4 molar
Experimental: as §2

SNB-75 = experiment: NCI screen, growth of human tumor cells: CNS Cancer SNB-75
Outline: as §1

U-251 = experiment: NCI screen, growth of human tumor cells: CNS Cancer U-251; details: U251, 10^−4 molar
Outline: as §1

M14 = experiment: NCI screen, growth of human tumor cells: Melanoma M14; details: M14, 10^−4 molar
Outline: as §1

MALME-3M = experiment: NCI screen, growth of human tumor cells: Melanoma MALME-3M; details: MALME-3M
Outline: as §1

SK-MEL-2 = experiment: NCI screen, growth of human tumor cells: Melanoma SK-MEL-2; details: SK-MEL-2, 10^−4 molar
Outline: as §1

SK-MEL-28 = experiment: NCI screen, growth of human tumor cells: Melanoma SK-MEL-28; details: SK-MEL-28 (Melanoma), 10^−4 molar
Outline: as §1

SK-MEL-5 = experiment: NCI screen, growth of human tumor cells: Melanoma SK-MEL-5; details: SK-MEL-5, 10^−4 molar
Outline: as §1

UACC-257 = experiment: NCI screen, growth of human tumor cells: Melanoma UACC-257; details: UACC-257 (Melanoma), 10^−4 molar
Outline: as §1

UACC-62 = experiment: NCI screen, growth of human tumor cells: Melanoma UACC-62; details: UACC-62, 10^−4 molar
Outline: as §1

IGROVI = experiment: NCI screen, growth of human tumor cells: Ovarian Cancer IGROVI; details: IGROVI
Outline: as §1

OVCAR-3 = experiment: NCI screen, growth of human tumor cells: Ovarian Cancer OVCAR-3; details: OVCAR-3, 10^−4 molar
Outline: as §1

OVCAR-4 = experiment: NCI screen, growth of human tumor cells: Ovarian Cancer OVCAR-4; details: OVCAR-4 (Ovarian Cancer), 10^−4 molar
Outline: as §1

OVCAR-5 = experiment: NCI screen, growth of human tumor cells: Ovarian Cancer OVCAR-5; details: OVCAR-5, 10^−4 molar
Outline: as §1

TK-10 = experiment: NCI screen, growth of human tumor cells: Renal Cancer TK-10; details: TK-10 (Renal Cancer), 10^−4 molar
Experimental: as §2

SN12C = experiment: NCI screen, growth of human tumor cells: Renal Cancer SN12C; details: SN12C (Renal Cancer), 10^−4 molar
Outline: as §1

CAKI-1 = experiment: NCI screen, growth of human tumor cells: Renal Cancer CAKI-1; details: CAKI-1, 10^−4 molar
Outline: as §1

UO-31 = experiment: NCI screen, growth of human tumor cells: Renal Cancer UO-31; details: UO-31 (Renal Cancer), 10^−4 molar
Outline: as §1

PC-3 = experiment: NCI screen, growth of human tumor cells: Prostate Cancer PC-3; details: PC-3, 10^−4 molar
Outline: as §1

DU-145 = experiment: NCI screen, growth of human tumor cells: Prostate Cancer DU-145; details: DV-145, 10^−4 molar
Outline: as §1

MCF7/ADR-RES = experiment: NCI screen, growth of human tumor cells: Breast Cancer MCF7/ADR-RES; details: MCF7/ADR-RES, 10^−4 molar
Outline: as §1

BT-549 = experiment: NCI screen, growth of human tumor cells: Breast Cancer BT-549; details: BT-549 (Breast Cancer), 10^−4 molar
Outline: as §1

HS 578T = experiment: NCI screen, growth of human tumor cells: Breast Cancer HS 578T; details: H5-578T
Outline: as §1

MDA-MB-231/ATCC = experiment: NCI screen, growth of human tumor cells: Breast Cancer MDA-MB-231/ATCC; details: MDA-MB-231/ATCC (Breast Cancer), 10^−4 molar
Experimental: as §2

human cancer cells = experiment: NCI screen summary over the cancers tested (negative growth of human cancer cells); details: 10^−4 M conc.
Experimental: as §2
The derivatives in the tables are grouped using the same category as in the tables 1-6.

Substance: propane-1-[hydroxyhydrogensulfate]-3-(2-methylnaphthyl)-3,3-(ethylenedisulfonate) [NSC 693879]
- % Growth (CCRF-CEM; 10^−4 molar): −33%
- % Growth (CCRF-CEM; 10^−5 molar): 52%
- percent of growth of human tumor cells (MOLT-4): −16%
- percent of growth of human tumor cells (RPMI-8226): −28%
- % Growth (SR; 10^−4 molar): −19%
- % Growth (SR; 10^−5 molar): 13%
- % Growth (AS49/ATCC): −62%
- % Growth (EKVX): −90%
- % Growth (HOP-62): −65%
- percent of growth of human tumor cells (HOP-92): −35%
- % Growth (NCI-H522; NCI-H522, 10^−4 molar): −100%
- % Growth (NCI-H522; NCI-H522, 10^−5 molar): 35%
- % Growth (NCI-H522; NCI-H522, 10^−6 molar): 63%
- percent of growth of human tumor cells (NCI-H460): −58%
- percent of growth of human tumor cells (NCI-H322M; NCI-H322M (Non-Small Cell Lung)): −71%
- % Growth (NCI-H322M; NCI-H322M): −71%
- % Growth (NCI-H23): −65%
- % Growth (HCC-2998): −78%
- % Growth (COLO205; COLO205, 10^−4 molar): −73%
- % Growth (COLO205; COLO205, 10^−5 molar): 57%
- % Growth (HCT-116): −79%
- percent of growth of human tumor cells (HCT-15): −39%
- % Growth (HT29): −86%
- % Growth (KM12): −92%
- % Growth (SF-268; SF-268, 10^−4 molar): −56%
- % Growth (SF-268; SF-268, 10^−5 molar): 59%
- % Growth (SF-295; SF-295, 10^−4 molar): −82%
- % Growth (SF-295; SF-295, 10^−5 molar): 58%
- % Growth (SNB-19): −72%
- % Growth (SNB-75; SNB-75, 10^−4 molar): −62%
- % Growth (SNB-75; SNB-75, 10^−5 molar): 55%
- % Growth (U-251): −100%
- % Growth (M14): −100%
- % Growth (MALME-3M; 10^−4 molar): −100%
- % Growth (MALME-3M; 10^−5 molar): 44%
- % Growth (MALME-3M; 10^−6 molar): 62%
- % Growth (SK-MEL-2): −99%
- percent of growth of human tumor cells (SK-MEL-28): −5%
- % Growth (SK-MEL-5): −100%
- percent of growth of human tumor cells (UACC-257): −32%
- % Growth (UACC-62): −66%
- % Growth (IGROVI; 10^−4 molar): −89%
- % Growth (IGROVI; 10^−5 molar): 50%
- % Growth (IGROVI; 10^−6 molar): 60%
- % Growth (IGROVI; 10^−7 molar): 52%
- % Growth (OVCAR-3): −100%
- percent of growth of human tumor cells (OVCAR-4): −40%
- % Growth (OVCAR-5): −100%
- percent of growth of human tumor cells (TK-10): −3%
- percent of growth of human tumor cells (SN12C): −57%
- % Growth (CAKI-1): −87%
- percent of growth of human tumor cells (UO-31): −48%
- % Growth (PC-3): −100%
- % Growth (DU-145): −100%
- % Growth (MCF7/ADR-RES): −54%
- percent of growth of human tumor cells (BT-549): −34%
- % Growth (HS 578T; 10^−4 molar): −49%
- % Growth (HS 578T; 10^−5 molar): 55%
- percent of growth of human tumor cells (MDA-MB-231/ATCC): −54%
- percentage of cancers that had −100% growth (human cancer cells): 20%
- Percentage of cancers showing negative growth cancers tested (human cancer cells; cancers with negative growth / cancers tested): 100%
